Assay results: the Kinase Knowledgebase extract (Sharma et al. 2016)

What follows are molecules tested against PIK3CD (Human) (UniProt O00329) (assay: Enzyme Assay).
PIK3CD (Human), sequence (O00329 whole entry, looked up): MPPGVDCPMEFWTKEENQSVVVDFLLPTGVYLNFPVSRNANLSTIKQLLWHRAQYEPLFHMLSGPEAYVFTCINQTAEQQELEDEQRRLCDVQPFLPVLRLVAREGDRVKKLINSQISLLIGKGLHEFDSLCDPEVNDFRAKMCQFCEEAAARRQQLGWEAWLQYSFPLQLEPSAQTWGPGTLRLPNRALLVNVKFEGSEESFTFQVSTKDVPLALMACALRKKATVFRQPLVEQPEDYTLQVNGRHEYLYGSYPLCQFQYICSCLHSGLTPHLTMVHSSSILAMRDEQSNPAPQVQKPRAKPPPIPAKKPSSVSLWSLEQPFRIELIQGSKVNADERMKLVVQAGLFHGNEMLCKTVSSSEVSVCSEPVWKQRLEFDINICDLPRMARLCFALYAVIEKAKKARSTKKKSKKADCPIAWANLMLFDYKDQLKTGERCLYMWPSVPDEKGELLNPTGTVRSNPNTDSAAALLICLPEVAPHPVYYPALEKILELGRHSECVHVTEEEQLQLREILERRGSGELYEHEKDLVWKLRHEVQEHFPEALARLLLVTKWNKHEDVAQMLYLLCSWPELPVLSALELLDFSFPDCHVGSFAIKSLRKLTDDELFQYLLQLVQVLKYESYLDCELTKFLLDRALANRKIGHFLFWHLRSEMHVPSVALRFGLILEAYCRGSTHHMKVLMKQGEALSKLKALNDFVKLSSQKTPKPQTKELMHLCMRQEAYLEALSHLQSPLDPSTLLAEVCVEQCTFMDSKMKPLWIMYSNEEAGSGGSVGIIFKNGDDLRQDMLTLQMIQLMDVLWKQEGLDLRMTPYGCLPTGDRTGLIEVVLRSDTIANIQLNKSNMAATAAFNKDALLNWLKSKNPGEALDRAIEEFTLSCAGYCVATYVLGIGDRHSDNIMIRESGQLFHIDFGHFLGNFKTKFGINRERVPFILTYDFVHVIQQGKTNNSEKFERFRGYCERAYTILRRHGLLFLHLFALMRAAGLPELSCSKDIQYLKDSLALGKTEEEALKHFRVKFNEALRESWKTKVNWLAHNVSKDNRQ

SMILES	IC50
CCC(=O)N1CC[C@H](Oc2ncnc3c2nc(-c2ccc(OC)c(F)c2)n3C)C1	6.4 nM
CCn1c(N(C)CC(C)C)nc2c(O[C@H]3CCN(C(=O)OC(C)(C)C)C3)ncnc21	150 nM
CCn1ncc(-c2nc3c(O[C@H]4CCN(C(=O)c5cc(C(C)(C)C)nn5C)C4)ncnc3n2C)c1C	150 nM
CCC(=O)N1CC[C@H](Oc2ncnc3c2nc(Oc2cc(F)cc(OC)c2)n3C)C1	110 nM
CCn1ncc(-c2nc3c(S[C@H]4CCN(c5ncnc6sccc56)C4)ncnc3n2C)c1C	5.5 nM
CCn1c(-c2cnc(OC)c(F)c2)nc2c(O[C@H]3CCN(C(=O)c4cncn4C)C3)ncnc21	1.5 nM
CCn1ncc(-c2nc3c(O[C@H]4CCN(C(=O)C5CCCO5)C4)ncnc3n2C)c1C (stereo partly specified)	12 nM
CCC(=O)N1CC[C@H](Oc2ncnc3c2nc(-c2cnn4c2CCCC4)n3C)C1	2.4 nM
CCn1ncc(-c2nc3c(O[C@H]4CCN(C(=O)c5[nH]ncc5C)C4)ncnc3n2C)c1C	3.6 nM
CCn1c(-c2cnc(C)nc2)nc2c(O[C@H]3CCN(C(=O)C4CCOC4)C3)ncnc21 (stereo partly specified)	5.8 nM
Cn1c(-c2ccc3[nH]ncc3c2)nc2c(O[C@H]3CCN(C(=O)OC(C)(C)C)C3)ncnc21	35 nM
CCn1c(-c2cnc(OC)c(NS(C)(=O)=O)c2)nc2c(O[C@H]3CCN(C(=O)C4CC4)C3)ncnc21	< 1 nM
CCn1ncc(-c2nc3c(S[C@H]4CCN(C(=O)C5CC5)C4)ncnc3n2C)c1C	3.8 nM
CCn1c(-c2cnc(C)nc2)nc2c(O[C@H]3CCN(c4cccc(F)c4)C3)ncnc21	2.2 nM
CCC(=O)N1CC[C@H](Oc2ncnc3c2nc(-c2cnc(C)nc2)n3C)C1	36 nM
CCn1ncc(-c2nc3c(S[C@H]4CCN(C(=O)OC(C)(C)C)C4)ncnc3n2C)c1C	23 nM
CCn1c(-c2cnc(C)nc2)nc2c(O[C@H]3CCN(C(=O)[C@H]4CC5CCN4C5)C3)ncnc21 (stereo partly specified)	88 nM
CCC(=O)N1CC[C@H](Oc2ncnc3c2nc(-c2ccc(Cl)nc2)n3C)C1	16 nM

SMILES	IC50
CCn1c(-c2cnc(N)c(C(F)(F)F)c2)nc2c(O[C@H]3CCN(C(=O)C4CC4)C3)ncnc21	1.1 nM
CCn1c(-c2cnc(C)nc2)nc2c(O[C@H]3CCN(C(=O)c4ccn(C)n4)C3)ncnc21	3 nM
CCn1ncc(-c2nc3c(O[C@H]4CCN(C(=O)c5cn[nH]c5)C4)ncnc3n2C)c1C	16 nM
CCn1ncc(-c2nc3c(O[C@H]4CCN(C(=O)c5cocn5)C4)ncnc3n2C)c1C	19 nM
CCn1ncc(-c2nc3c(O[C@H]4CCN(C(=O)c5ccn(C)n5)C4)ncnc3n2C)c1C	2.2 nM
CCn1c(-c2cnc(C)nc2)nc2c(O[C@@H]3CN(C(=O)OC(C)(C)C)C[C@H]3F)ncnc21.CCn1c(-c2cnc(C)nc2)nc2c(O[C@H]3CN(C(=O)OC(C)(C)C)C[C@@H]3F)ncnc21	3.3 nM
CCn1ncc(-c2nc3c(OC4CCN(C(=O)C5CCCC5)C4)ncnc3n2C)c1C (stereo unspecified)	9.4 nM
CCn1ncc(-c2nc3c(O[C@H]4CCN(c5nccc(-c6ccco6)n5)C4)ncnc3n2C)c1C	128 nM
CCn1ncc(-c2nc3c(O[C@H]4CCN(C(=O)C5CCOCC5)C4)ncnc3n2CC)c1C	< 1 nM
CCn1ncc(-c2nc3c(O[C@H]4CCN(c5cc(-n6cccn6)ncn5)C4)ncnc3n2C)c1C	216 nM
CCn1ncc(-c2nc3c(O[C@H]4CCN(c5nccn6cnnc56)C4)ncnc3n2C)c1C	30 nM
CCn1ncc(-c2nc3c(O[C@H]4CCN(C(=O)c5c[nH]nn5)C4)ncnc3n2C)c1C	12 nM
CCC(=O)N1CC[C@H](Oc2ncnc3c2nc(C(F)F)n3CC)C1	100 nM
CCC(=O)N[C@H]1CC[C@H](Oc2ncnc3c2nc(-c2cnc(C)nc2)n3CC)CC1	330 nM
CCC(=O)N1CC[C@H](Oc2ncnc3c2nc(-c2cnc(C(C)(C)C)s2)n3C)C1	1.6 nM
Cn1c(-c2cnc(C(C)(C)C)s2)nc2c(O[C@H]3CCN(C(=O)OC(C)(C)C)C3)ncnc21	6.9 nM
CCn1c(-c2cnc(C)nc2)nc2c(O[C@H]3CCN(C(=O)OCCCN(C)C)C3)ncnc21	37 nM
Cc1ncc(-c2nc3c(O[C@H]4CCN(C(=O)OC(C)(C)C)C4)ncnc3n2C)n1C	28 nM
